Measured values reported in patent US12661355B2, “Compounds and methods for inducing UCP1 expression” (The Regents of the University of California, priority 2020, dated 2026).

Tests used:
Assay type in all cases: cell-based, mouse
Ucp1 = experiment: Gene expression by qPCR in primary brown adipocytes; settings: for expression of markers of brown adipocyte identity, mitochondrial function and fatty acid oxidation genes / endogenous Ucp1 expression: 10 μM; for endogenous Ucp1 expression: primary mouse brown adipocytes
Method: Primary brown adipocytes were isolated according to known methods. An established mouse brown adipocyte cell line was obtained from Dr. Bruce Spiegelman (Dana-Farber Cancer Institute, Boston, USA). To differentiate primary and immortalized brown adipocytes, cells were grown until confluency in DMEM containing 10% FBS, 25 mM glucose 1 mM pyruvate, 2 mM glutamine, 20 nM insulin, 1 nM T3, and antibiotics. Once confluent (day 0), differentiation was induced by supplementing the medium with 0.5 mM IBMX, 0.5 μM dexamethasone, and 0.125 mM indomethacin, for 2 days. Differentiation was continued in the original medium (without IBMX, dexamethasone and indomethacin) for 7-10 days.
RNA levels were measured by qPCR according to known methods. Briefly, RNA was extracted with TRIzol (Invitrogen) and reverse transcribed with iScript (Bio-Rad). Real-time PCR analysis was performed with a CFX Connect (Bio-Rad).
Mouse RNA levels were measured by qPCR according to known methods. Data were normalized to B2m and Tbp reference genes. Human RNA was extracted using an RNA Mini Plus kit (Zymo) and gene expression determined by Taqman assay. The 1-step qPCR was run on a QuantStudio 12K Flex Real Time PCR System (ThermoFisher) using the following protocol: 50° C. for 5 minutes, 95° C. for 20 seconds, 40 cycles of 95° C. for 15 seconds and 60° C. for 60 seconds. Data were normalized to PPIA and PSMB2 reference genes. For global gene expression analysis, RNA isolated from brown adipocytes treated with compounds as indicated (four biological replicates) was hybridized to Illumina mouse Ref 8 V2.0 bead chips at the University of California, Los Angeles Neuroscience Genomics Core as previously described. Data were processed with GenomeStudio V2011.1 using the quantile normalization, background subtraction, and a present call of P<0.05.

[1] = system: immortalized brown adipocytes; experiment: Cellular respiration (Seahorse) in immortalized brown adipocytes; settings: 10 μM
Method: Cellular respiration was measured using a Seahorse XF24 or XF96 analyzer (Agilent) following known protocols Immortalized brown adipocytes were differentiated in 6-well plates and replated in the Seahorse XF24 plates at a density of 50,000 cells per well using trypsin and collagenase type II. Cells were treated with vehicle (DMSO) or compounds for 18-24 h. Oxygen consumption rates were obtained before and after the sequential injection of 0.75 μM oligomycin, 0.5 μM FCCP, and 0.75 μM rotenone/myxothiazol. Results were normalized to total protein. For human white adipocytes, cells were cultured as described above and differentiated in XF96 microplates. DMSO or Z160 (10 μM) was added at day 17 and for 4 days. Oxygen consumption rates were measured before and after the sequential injection of 1 μM oligomycin, 1 μM FCCP, and 0.5 μM rotenone/antimycin A. For these cells, results were normalized to cell count determined by nuclei fluorescent staining with Hoescht staining imaged on Cytation 5 Imaging Reader and analysis with Gen5 software (BioTek). For both mouse and human cell lines, mitochondrial respiration was calculated by subtracting the non-mitochondrial respiration present after the last injection. Uncoupled respiration corresponds to the respiration difference between oligomycin and the last injections. Maximal respiration was determined after FCCP injection.

[2] = system: phospho-(Ser/Thr) PKA substrate; experiment: Phosphorylation of PKA substrates by Western blot in brown adipocytes; settings: overnight, 10 μM
Method: Cells and tissues were lysed in 10 mM Tris pH 7.5, 10 mM NaCl, 1 mM EDTA and 0.5% Triton X-100, supplemented with complete mini EDTA-free protease (Roche Diagnostics) and phosphatase (Cocktail 2 and 3, Sigma) inhibitors, followed by 10 second sonication. For analysis of mitochondrial proteins, mitochondria were isolated from cells by dual centrifugation, as described. Protein lysates were separated by SDS-PAGE and transferred to a nitrocellulose membrane. Transfer was confirmed by Ponceau staining (P7170, Sigma). After blocking in 5% milk, 0.1% Tween-20 in Tris-buffered saline (TBS), primary antibody was incubated overnight at 4° C. in 5% bovine serum albumin and 0.1% Tween-20 in TBS. Primary antibodies against ACTB (GTX109639, GeneTex), AKAP1 (5203, Cell Signaling), AKAP6 (07-087, Millipore), Cytochrome c (136F3, Cell Signaling), electron transport chain protein complexes (Total OXPHOS rodent WB antibody cocktail ab110413, Abcam), GAPDH (GTX100118, Genetex), active p38 MAPK (V1211, Promega), total p38 MAPK (8690, Cell Signaling), PGC1α (AB3242, Millipore), phospho-(Ser/Thr) PKA substrate (9621, Cell Signaling), PKA C-α (4782, Cell Signaling), PKA RII-β (ab75993, Abcam), and UCP1 (662045, Calbiochem) were used at 1:2000. […] Quantification using representative bands from the Ponceau staining was performed with ImageJ.

SMILES	expression of markers of brown adipocyte identity, mitochondrial function and fatty acid oxidation genes (Ucp1; primary brown adipocytes)	expression of lipolytic enzymes (Atgl, Hsl) and FGF21 at the mRNA level (Ucp1; primary brown adipocytes, 10 μM overnight)	endogenous Ucp1 expression (Ucp1) [fold]	maximal respiration [1]	mitochondrial respiration [1]	uncoupled respiration [1]	phosphorylation of PKA substrates [2]
COc1ccc(NC(=O)CSc2nc3ccccc3c(=O)[nH]2)c(OC)c1 [Z160]	promoted expression	increased expression	62	showed the same trend	increased	increased	increased the levels of phosphorylation
O=C(CSc1nc2ccccc2c(=O)[nH]1)Nc1ccc2c(c1)OCCO2 [AST070, N-(2,3-dihydro-1,4-benzodioxin-6-yl)-2-[(4-oxo-3,4-dihydroquinazolin-2-yl)sulfanyl]acetamide]	promoted expression		29	significantly elevated	increased	increased	increased the levels of phosphorylation
